According to US5242915A, “Formulation useful for the inhibition of massive release of cerebral glutamate” (Shionogi & Co., Ltd., priority 1991, dated 1993):
Entries after “also recorded” stand apart in the source; their conditions may differ. Read-outs that look alike come from different tables or passages of the source.

Key:
[1] = cited from earlier work; for antihypertensive, peripheral, cerebral and coronary vasodilating actions: background statement
vascular smooth muscle = details: background statement; cited from earlier work
[2] = test system: cerebral release of glutamate; details: comparison, no data shown, cited from earlier work
DBA/2 Mouse = test: Ultrasonically (sound)-induced convulsion in DBA/2 mouse; type: in vivo, mouse (DBA/2); details: for ED50: Mus musculus, one hour before ultrasonic treatment (70-90 db, 1 min), probit method, read-out: ED50 (anti-convulsant effect); for anti-convulsant effect, in words: sound/ultrasonically induced convulsion; for anticonvulsive effect (general statement): FIG. 3 and Table 1
Excerpt: Animal: Ten mice consisting of five each of male and female DBA/2 mice (weighing from 7 to 11 g) bred at the Aburahi Laboratories (Shionogi) at three weeks of age were used in a group.
One hour before the ultrasonic treatment, each mouse of test group orally received S-312-d as a solution in polyethylene glycol 400. To each mouse of control groups was orally administered either of Nicardipine, as a solution in polyethylene glycol 400, S-312-1, Nimodipine or Flunarizine, as a suspension in gum arabic. Convulsion was induced in mouse by an ultrasonic treatment (70-90 db, 1 min) and the number of tetanic death was observed. ED50 value of anti-convulsant effect of each compound was calculated by probit method using the […] as an indication.

[3] = NMDA channel antagonist; cited from earlier work
[4] = test system: massive release of cerebral glutamate in hippocampal CAI region; test: Effect on the ischemic release of glutamate in hippocampal CAI region (BCAO, microdialysis); type: in vivo, rat (SHRSP, stroke-prone spontaneously Hypertensive Rats); details: intraduodenal, 40 min before BCAO, S-312-d 0.3 mg/kg; for inhibition of the massive release of glutamate during BCAO: nilvadipine 3 mg/kg, nimodipine 3 mg/kg, FIG. 2
Excerpt: Thus, an experimental cerebral ischemia was caused in SHRSPs by the occlusion of both common carotid arteries (hereinafter, referred to as BCAO). During the ischemic period, a massive release of glutamate in hippocampal CAI region was observed (see, FIG. 1).
Reference compound: nilvadipine, and nimodipine Animal: Five male SHRSP bred at the Aburahi Laboratories (Shionogi) at ten to twelve weeks of age were used in a group. Animals were fed CA-1 (Nihon Clea) and tap water ad libitum.
Hippocampus CAI region was made ischemia by the occlusion of both common carotid arteries (BCAO) into rats as follows:
Rats were anesthetized with halothane (3%) and the cervical region proximal to abdomen was incised to expose the common carotid arteries. Both arteries were occluded with nylon threads with each end exposed at the back of the neck through either of two holes of a tube (double lumen PE tube, Natsume Seisakusho, & Co.). Occlusion was induced in the both common carotid arteries by pulling strongly each exposed end of threads. BCAO was stopped by gradually pulling down the each end of threads passed under arteries proximal to abdomen. During the ischemic period, the halothane inhalation was stopped.
The determination of the regional cerebral blood flow was conducted using a laser doppler tissue flow meter (LFA-2, Biomedical Science, Japan) with a needle-type sensor (450 μm in diameter) inserted into the hippocampal CA1 region opposite to the site where a microdialysis probe had been fixed. The blood flow during BCAO was estimated as almost negligible on the assumption that the blood flow after the death of rat is "0".
S-312-d (0.3 mg/kg), nilvadipine (3 mg/kg), or nimodipine (3 mg/kg) was dissolved into polyethylene glycol 400 and administered into duodenum in each rat at 40 min before BCAO.
Under the anesthesia with halothane (1-2%), rats were fixed on cerebral stereotaxic frame and equipped with an artificial respirator (1 cc/100 gbw×60 times/min), while being maintained at 37 ° C by settling a heating pad beneath the lower abdominal region. A hole was drilled on the exposed skull and a microdialysis probe (CMA/10, membrane length 2 mm, BAS, Sweden) was inserted gently. Measurement was started after 3 hr from the surgery in order to avoid the influence of tissue damage. The probe was perfused with Ringer's solution at a flow rate of 2 μl/min by a microdialysis pump (CMA/100, BAS, Sweden). The dialysates were collected for each 5-min perfusion and pooled. Sampling was started at 10 min before the BCAO. BCAO was continued for 20 min when it was stopped by loosening […] threads to allow cerebral circulation. The sampling was continued for 20 min after the discontinuation of the BCAO. Samples were then subjected to quantitative analysis for glutamate without further treatments.
The concentration of glutamate was determined by HPLC substantial in accordance with the HPLC-ECD method of Donzanti et al. (Life Sci. 43: 913 (1988)) The glutamate-containing sample was reacted with o-phthlaldehyde/β-mercaptoethanol solution for 2 min and injected into a reverse-phase column and eluted under the following conditions. The eluate was then analyzed for the presence of glutamate by an electrochemical measurement of oxidation-reduction current.
Column: C 18, particle size: 3 μm, 8 cm×4.6 mm
Mobile phase: a mixture of 0.1M phosphate buffer (pH 6.4), 0.13 mM Na2 EDTA, and 22% MeOH

[5] = test system: pyramidal neurons of the hippocampal CAI region; test: Delayed neuronal death during cerebral ischemia (density of living pyramidal neurons); type: in vivo, rat (SHRSP); details: for Density of Neurons, animals with 40-80 n/mm / Density of Neurons, animals with 80-120 n/mm / Density of Neurons, animals with <40 n/mm / Density of Neurons, animals with >120 n/mm: 7th day; for Density of Neurons, mean ± S.E.M: normal 160 ± 9, control 69 ± 10
Protocol: Animal: eight to twelve (n=8-12) male SHRSP bred at the Aburahi Laboratories (Shionogi) were used in a group. Animals were fed CA-1 (Nihon Clea) and tap water ad libitum.
S-312-d was dissolved into polyethylene glycol 400 solution and intraperitoneally administered to a SHRSP at 60 min before the introduction of a global cerebral ischemia. Cerebral ischemia was then caused in each rat for 20 min and stopped to allow cerebral circulation in the same manner as the above Experiment 1. For the histological observation on the delayed neuronal death, a fixation of tissue was conducted by perfusing the animal from the left ventricle using 4% paraformaldehyde at a flow rate of 10 ml/min by means of perista pump (AC-2110, ATTA) on the 7th day from the ischemia. After the removal of brain, cerebral region containing hippocampus was embedded in paraffin, from which sliced preparations of 4 μm thick were prepared. Each cerebral preparation was stained with hematoxylin-eosin and the density of the living pyramidal neurons (n/mm) was determined by counting the number of neurons per 1 mm length of the hippocampal CAI region under a light microscope. The data were expressed as the mean ±S.E.M. For the purpose of comparison, SHRSPs with or without ischemic maneuvering were both treated with propylene glycol, in exactly the same manner as the above.

[6] = oral, one hour before ultrasonic treatment
[7] = treated group (I), 0.01 mg/kg i.p. 60 min before ischemia (20 min), n = 12
[8] = treated group (II), 0.1 mg/kg i.p. 60 min before ischemia (20 min), n = 13

COC(=O)C1=C(C)Nc2scc(CC(C)C)c2C1c1cccc([N+](=O)[O-])c1 (racemic) [S-312, methyl 4,7-dihydro-3-isobutyl-6-methyl-4-(3-nitrophenyl)thieno[2,3-b]pyridine-5-carboxylate]
adverse reactions ([1]; U.S. Pat. No. 4,703,051): lesser adverse reactions
vasodilating, antihypertensive and coronary vasodilating effect ([1]; U.S. Pat. No. 4,703,051): potent antihypertensive and coronary vasodilating effect
antihypertensive, peripheral, cerebral and coronary vasodilating actions [1]: exhibit antihypertensive activity, as well as peripheral, cerebral, and coronary vasodilating actions
Ca-blocking effect on vascular smooth muscle (vascular smooth muscle): selective Ca-blocking effect on vascular smooth muscle

NCC(CC(=O)O)c1ccc(Cl)cc1 (stereo not shown) [Baclofen]
effect on ischemic release of glutamate [2]: not the ischemic release
effect on normal release of glutamate [2]: inhibit the normal glutamate release
effect on normal release of glutamate ([2]; listed as baclofen): inhibits the normal release

Fc1ccc(C(c2ccc(F)cc2)N2CCN(C/C=C/c3ccccc3)CC2)cc1 [Flunarizine]
ED50 (DBA/2 Mouse; oral): 48.1 mg/kg
anti-convulsant effect, in words (DBA/2 Mouse): dose-dependent anti-convulsant effect

C[C@]12N[C@H](Cc3ccccc31)c1ccccc12 [MK-801]
toxic effects / clinical applicability [3]: not clinically applicable because of serious toxic effects

COC(=O)C1=C(C)NC(C)=C(C(=O)OCCN(C)Cc2ccccc2)C1c1cccc([N+](=O)[O-])c1 (stereo not shown) [Nicardipine]
Anticonvulsive effect (maximum), at 20-80 mg/kg (DBA/2 Mouse; [6]): 30%
anticonvulsive effect (general statement) (DBA/2 Mouse; [6]): less than 40%

COCCOC(=O)C1=C(C)NC(C)=C(C(=O)OC(C)C)C1c1cccc([N+](=O)[O-])c1 (stereo not shown) [Nimodipine, reference compound]
inhibition of the massive release of glutamate during BCAO [4]: only S-312-d was significantly effective; also recorded: neither nilvadipine nor nimodipine shows significant effect
Anticonvulsive effect (maximum), at 20-80 mg/kg (DBA/2 Mouse; [6]): 40%
anticonvulsive effect (general statement) (DBA/2 Mouse; [6]): less than 40%

COC(=O)C1=C(C)Nc2scc(CC(C)C)c2[C@@H]1c1cccc([N+](=O)[O-])c1 [S-312-1, methyl (-)-(4R)-4,7-dihydro-3-isobutyl-6-methyl-4-(3-nitrophenyl)thieno[2,3-b]pyridine-5-carboxylate]
Anticonvulsive effect (maximum), at 10-80 mg/kg (DBA/2 Mouse; oral, 10-80 mg/kg, one hour before ultrasonic treatment): 30%
anticonvulsive effect (general statement) (DBA/2 Mouse; [6]): less than 40%

COC(=O)C1=C(C)Nc2scc(CC(C)C)c2[C@H]1c1cccc([N+](=O)[O-])c1 [S-312-d, methyl (+)-(4S)-4,7-dihydro-3-isobutyl-6-methyl-4-(3-nitrophenyl)thieno[2,3-b]pyridine-5-carboxylate]
effect on the normal resting release of glutamate [4]: not the normal resting release; also recorded: without affecting the normal resting release of glutamate; also recorded: not the normal cerebral release of glutamate
inhibition of the massive release of glutamate during BCAO [4]: only S-312-d was significantly effective; also recorded: inhibited the massive release of glutamate during BCAO; also recorded: inhibits specifically the massive release of glutamate during cerebral ischemia; also recorded: inhibiting specifically a massive release of cerebral glutamate from hippocampus
inhibition of the massive release of glutamate during BCAO ([4]; listed as S-312-2): the massive release of cerebral glutamate
ED50 (DBA/2 Mouse; oral): 17.6 mg/kg
anti-convulsant effect, in words (DBA/2 Mouse): inhibits sound-induced convulsion in DBA/2 mouse; also recorded: dose-dependent anti-convulsant effect; also recorded: potent inhibitory effect on a convulsion induced by sound stimulation in DBA/2 mice
anti-convulsant effect, in words (DBA/2 Mouse; listed as S-312-2): inhibit the both of a) the sound-induced convulsion
protection of cerebral neurons against ischemic necrosis ([5]; pretreatment i.p., Table 2): significantly effective for the protection of cerebral neurons against ischemic necrosis of cells
Density of Neurons, animals with 40-80 n/mm [5, 7]: 4
Density of Neurons, animals with 80-120 n/mm [5, 7]: 2
Density of Neurons, animals with <40 n/mm [5, 7]: 3
Density of Neurons, animals with >120 n/mm [5, 7]: 3
Density of Neurons, mean ± S.E.M ([5]; treated group (I), 0.01 mg/kg i.p., n = 12, p < 0.01 vs normal group): 73 ± 12 n/mm
Density of Neurons, animals with 40-80 n/mm [5, 8]: 1
Density of Neurons, animals with 80-120 n/mm [5, 8]: 4
Density of Neurons, animals with <40 n/mm [5, 8]: 2
Density of Neurons, animals with >120 n/mm [5, 8]: 6
Density of Neurons, mean ± S.E.M ([5]; treated group (II), 0.1 mg/kg i.p., n = 13, p < 0.01 vs control group): 114 ± 17 n/mm
antihypertensive, peripheral, cerebral and coronary vasodilating actions [1]: exhibit antihypertensive activity, as well as peripheral, cerebral, and coronary vasodilating actions
Ca-blocking effect on vascular smooth muscle (vascular smooth muscle): selective Ca-blocking effect on vascular smooth muscle

COC(=O)C1=C(C#N)NC(C)=C(C(=O)OC(C)C)C1c1cccc([N+](=O)[O-])c1 (stereo not shown) [nilvadipine, reference compound]
inhibition of the massive release of glutamate during BCAO [4]: only S-312-d was significantly effective; also recorded: neither nilvadipine nor nimodipine shows significant effect
